Assay results: patent US12377082B2, “Nicorandil derivatives” (priority 2019, dated 2025)

Columns and labels:
[1] = Conversion of Compound A to nicorandil in rat plasma (FIG. 2); type: in vitro ADME; settings: various time points
[2] = Pharmacokinetics (PK) in dog, oral dosing; type: in vivo, Beagle dog
Experimental: Pharmacokinetics (PK) Protocol: Dog
0.5 ml blood was collected at each time point from the femoral vein via direct stick at defined time points. in tubes containing anticoagulant. […] Supernatant was kept for analysis. […] Quantitative analysis was done by liquid chromatography tandem mass spectrometer (API3000 LC-MS/MS).

[3] = Pharmacokinetics (PK) in rat, oral dosing, plasma levels of parent drug nicorandil; type: in vivo, SD rats
Experimental: Pharmacokinetics (PK) Protocol: Rat
The dosing vehicle used in this study was PEG400. 1, 3, 10 mg/kg oral dosing was done in overnight fasted SD rats and the parent drug generated was monitored. Also presence of modified drug was checked. After oral (PO) dosing blood was collected by serial bleeding at 8 different time points in heparinised tubes. […] Supernatant was kept for analysis. […] Quantitative analysis was done by liquid chromatography tandem mass spectrometer (API3000 LC-MS/MS).

- conversion to nicorandil [1]: Complete conversion to nicorandil
- plasma exposure compared (AUC and Cmax) ([2]; 3 mg/kg oral): significantly higher
- modified drug detected in plasma ([2]; oral): no modified drug was detected
- plasma exposure (in words) ([2]; oral): excellent plasma exposure
- dose linearity of plasma exposure ([3]; rat, 1, 3, 10 mg/kg oral): displayed dose linearity
- modified drug detected in plasma ([3]; rat, oral): no modified drug was detected
- plasma exposure (in words) ([3]; rat, oral): excellent plasma exposure
Compound: C[C@H](NC(=O)OC[n+]1cccc(C(=O)NCCO[N+](=O)[O-])c1)C1CCCCC1 [Compound 8, (S)-1-(((1-cyclohexylethylcarbamoyl)oxy)methyl)-3-((2-(nitroxy)ethyl)carbamoyl)pyridine-1-ium iodide]
